This is an account of results in patent US9868715B2 (THE BOARD OF REGENTS OF THE UNIVERSITY OF TEXAS SYSTEMS, priority 2014, dated 2018).

The test system of data set [1] is transformed PSC (human pancreatic stellate cells). In words: PSC proliferation, AlamarBlue Cell Viability Assay. In kind it is cell-based. The settings on record: for inhibition at 5 µM / inhibition at 10 µM / inhibition at 20 µM: Homo sapiens, read-out: Inhibitory Effect (%) on PSC proliferation; for Antiproliferative effect on PSC, result in words: transformed PSC, AlamarBlue. Here is the method:
The calculated lipophilicity (cLogP) and topological polar surface area (tPSA) values of synthesized analogues are listed in Table 1. […] AlamarBlue is a non-toxic reagent that is converted to a highly fluorescent end product by viable cells.
Under an IRB-approved tissue protocol, discarded human resected pancreatic tissue (500 mm^3) was attained fresh from the operating room at the University of Texas Medical Branch. The tissue was minced and plated on a collagen-coated flask (15 μg/mL, Invitrogen) with DMEM (VWR; Radnor, Pa.) supplemented with penicillin 200 U/mL, streptomycin 200 μg/mL, amphotericin B 0.25 μg/mL and gentimicin 50 μg/mL (Invitrogen, Carlsbad Calif.), 10% fetal bovine serum (Lonza, Walkersville, Md.), 1% insulin-transferrin, selenium-ethanolamine (Gibco, Grand Island, N.Y.), and 1% non-essential amino acids (Sigma-Aldrich, St. Louis, Mo.). The human PSC were isolated by the outgrowth method.^41-43 The purity of PSC culture was confirmed by immunohistochemical staining for vimentin, α-smooth muscle actin, glial fibrillar acidic protein, or Oil red O staining. Primary PSC were transformed and immortalized for use in experiments using lentiviral vectors containing SV40 Large T antigen and human telomerase (plasmid #12245 and 12246; Addgene, Cambridge, Mass.). Cultures were maintained in DMEM with 10% FBS, at 37° C. in a humidified 95% O2/5% CO2 atmosphere.
Cell proliferation assay. Transformed PSC (3×10^3) were plated in 96-well plates, in sextuplicate. […] AlamarBlue reagent (10% sample volume, DAL1025) was added to each well per Invitrogen's protocol. Fluorescence was recorded using excitation/emission wavelengths of 544/590 nm and the SpectraMax M2 Microplate Reader (Molecular Devices, Sunnyvale Calif.).
Statistical analysis. Dose-response curves were generated by plotting fluorescence or absorbance versus log (compound concentration). A best-fit curve was created using nonlinear regression, and the IC50 or EC50 determined from the graph (GraphPad Prism 5; GraphPad Software Inc., La Jolla, Calif.). To analyze continuos variables, unpaired student t-tests and one-way ANOVA with Tukey-Kramer multiple comparisons post-test (GraphPad Prism 5). Significance was set at p<0.05.
On the technique in general: The colour change of resazurin is a common sign of viable cells or microbes.

In data set [2] the target is T1, human CBS (cystathionine-β-synthase) (Homo sapiens, UniProt P35520).
T1 construct: GST (N); made in house; host or cells: E. coli BL21(DE3) Codon Plus
T1 sequence (P35520 1-551): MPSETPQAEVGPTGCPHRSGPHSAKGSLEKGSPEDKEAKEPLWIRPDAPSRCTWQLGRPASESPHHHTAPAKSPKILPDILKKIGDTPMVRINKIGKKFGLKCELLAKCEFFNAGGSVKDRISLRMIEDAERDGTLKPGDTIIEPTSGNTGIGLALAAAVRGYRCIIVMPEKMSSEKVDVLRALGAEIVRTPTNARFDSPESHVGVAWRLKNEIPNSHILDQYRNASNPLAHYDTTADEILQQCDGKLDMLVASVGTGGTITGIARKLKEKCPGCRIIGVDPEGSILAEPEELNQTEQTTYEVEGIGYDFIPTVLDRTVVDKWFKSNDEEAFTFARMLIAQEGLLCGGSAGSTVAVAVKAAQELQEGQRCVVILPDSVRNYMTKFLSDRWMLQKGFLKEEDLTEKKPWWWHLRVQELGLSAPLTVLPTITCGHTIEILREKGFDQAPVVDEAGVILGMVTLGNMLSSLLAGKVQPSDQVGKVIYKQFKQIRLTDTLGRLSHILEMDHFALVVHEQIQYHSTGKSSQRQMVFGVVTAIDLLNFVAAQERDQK
In words: H2S production by recombinant CBS. In kind it is biochemical. The note with it: 100 μM compound; H2S production as % of control (100%). Here is the method:
Recombinant human CBS protein expression and purification. The expression and purification of human CBS was performed as described previously (Asimakopoulou et al. 2013, Br J Pharmacol. 169(4):922-32). Briefly, E. Coli BL21(DE3) Codon Plus cells (Stratagene, La Jolla, Calif., USA) containing the expression vector pGEX-Kg/GST-CBS were grown at 37° C. and 180 rpm in LuriaBertani (LB) broth medium containing 100 μg/ml ampicillin to an absorption of 0.6-0.8 at 600 nm. Protein expression was induced by addition of 0.1 mM IPTG (isopropyl-b-D-thiogalactopyranoside) and cells were further incubated at 30° C. overnight. The bacteria were harvested and sonicated in lysis buffer PBS (140 mM NaCl, 2.7 mM KCl, 10 mM Na2HPO4, 1.8 mM KH2PO4, pH 7.8) containing a protease inhibitors cocktail (Sigma). The protein lysate was loaded onto a GSTrap FF 1 ml affinity column (Amersham Biosciences) and the GST-CBS recombinant protein was eluted with the elution buffer (50 mM Tris-HCl, 10 mM reduced glutathione, pH 8.0) and then dialyzed and concentrated in 10 mM sodium phosphate buffer (pH 8.2) and DTT (1 mM).
Measurement of H2S production by recombinant CBS. The measurement of H2S production by recombinant CBS enzyme was performed as described (Asimakopoulou et al. 2013, Br J Pharmacol. 169(4):922-32). Briefly, each test consisted of a 100 μl reaction mixture in 50 mM sodium phosphate buffer pH 8.2 containing 1 μg of the purified human CBS enzyme, 0.01 mM pyridoxal-5′-phosphate (PLP), 10 mM L-cysteine and 0.5 mM homocysteine. […] The reaction was initiated by transferring the Eppendorf tubes from ice to a 37° C. shaking water bath. After 60 minutes of incubation at 37° C., the reaction was terminated by adding 1% ZnAc followed by 10% trichloroacetic acid. Subsequently, N,N-dimethylphenylendiamine sulfate (20 mM in 7.2 M HCl) and FeCl3 (30 mM in 1.2 M HCl) were added and the optical absorbance of the solutions was measured at 650 nm.

The mark [3] stands for this setting: mean of at least three independent experiments, NE = No effect.
The mark [4] stands for this setting: 10 μM, mean of at least three independent experiments, NE = No effect.

For `COc1cc(OC)c2c(=O)cc(-c3ccc(OCC(O)CN(C)C)cc3)oc2c1` (centres unmarked) [Compound 26, 2-(4-(3-Dimethylamino-2-hydroxypropoxy)-phenyl)-5,7-dimethoxy-chromen-4-one], the melting point – broadly, the temperature, or range, at which the solid turns liquid – lay in the range of 92 to 93 °C. Besides, in data set [1] (setting [3]), the inhibition at 5 µM is 42% and the inhibition at 20 µM amounted to 71%. Besides, the inhibition at 10 µM in data set [1] (setting [4]) stood at 60%. Moreover, the activity at 100 µM in data set [2] was determined as 117%.

For the compound `COc1cc(OC)c2c(=O)cc(-c3ccc(O)cc3)oc2c1` [Compound 6, 2-(4-Hydroxy-phenyl)-5,7-dimethoxy-chromen-4-one], in data set [2], the activity at 100 µM was determined as 130%.

Regarding `COc1cc(OC)c2c(=O)cc(-c3ccc(OCCCN)cc3)oc2c1` [Compound 21, 2-(4-(3-Aminopropoxy)-phenyl)-5,7-dimethoxy-chromen-4-one], the melting point was 170 to 171 °C. Also, in data set [1] (setting [3]), the inhibition at 5 µM was 22%. Further, the inhibition at 10 µM in data set [1] (setting [4]) was 39%. For the same compound, the activity at 100 µM in data set [2] was found to be 116%.

The compound `COc1cc(OC)c2c(=O)cc(-c3ccc(OC4CCN(C)CC4)cc3)oc2c1` [Compound 9, 5,7-Dimethoxy-2-(4-(1-methylpiperidin-4-yloxy)phenyl)-chromen-4-one] registered a melting point of 143 to 144 °C. In data set [1] (setting [4]), the “Inhibitory Effect (%) on PSC proliferation” value is 49% and the inhibition at 10 µM was 49%. Besides, the inhibition at 5 µM in data set [1] (setting [3]) is 28%. Moreover, the activity at 100 µM in data set [2] worked out at 122%.

The compound `COc1cc(OC)c2c(=O)cc(-c3ccc(OCCN)cc3)oc2c1` [Compound 20, 2-(4-(2-Aminoethoxy)-phenyl)-5,7-dimethoxy-chromen-4-one] had a melting point of 165 to 166 °C. Also, in data set [1] (setting [3]), the inhibition at 5 µM is 6% and the inhibition at 20 µM was 70%. The inhibition at 10 µM in data set [1] (setting [4]) was found to be 35%. Also, the activity at 100 µM in data set [2] is 119%.

Consider `COc1cc(OC)c2c(=O)cc(-c3ccc(OCC(O)CN4CCCC4)cc3)oc2c1` (centres unmarked) [Compound 25, 2-(4-(2-Hydroxy-3-pyrrolidin-1-yl-propoxy)phenyl)-5,7-dimethoxy-chromen-4-one], for which the melting point is 137 to 138 °C. Besides, in data set [1] (setting [3]), the inhibition at 5 µM is 21% and the inhibition at 20 µM was 57%. Further, the inhibition at 10 µM in data set [1] (setting [4]) is 37%. Further, the activity at 100 µM in data set [2] was determined as 85.9%.

For `COC(=O)[C@@H]1CCCN1CCOc1ccc(-c2cc(=O)c3c(OC)cc(OC)cc3o2)cc1` [Compound 18, 1-(2-(4-(5,7-Dimethoxy-4-oxo-4H-chromen-2-yl)phenoxy)ethyl)-pyrrolidine-2-carboxylic acid methyl ester], the melting point was 121 to 122 °C. For the same compound, in data set [1] (setting [3]), the inhibition at 5 µM was 22% and the inhibition at 20 µM came to 67%. Also, in data set [1] (setting [4]), the inhibition at 10 µM came to 37%. Moreover, the activity at 100 µM in data set [2] came to 116%.

In the case of `COc1cc(OC)c2c(=O)cc(-c3ccc(NCCN4CCCC4)cc3)oc2c1` [Compound 37], the melting point was 148 to 149 °C. For the same compound, in data set [1] (setting [3]), the inhibition at 5 µM came out at 21% and the inhibition at 20 µM is 80%. In addition, the inhibition at 10 µM in data set [1] (setting [4]) turned out to be 51%. Further, the activity at 100 µM in data set [2] was determined as 109%.

For `COc1cc(OC)c2c(=O)cc(-c3ccc(Br)cc3)oc2c1` [Compound 31, 2-(4-Bromophenyl)-5,7-dimethoxy-chromen-4-one], in data set [1] (setting [3]), the inhibition at 5 µM stood at 12% and the inhibition at 20 µM was found to be 22%. Besides, in data set [1] (setting [4]), the inhibition at 10 µM is 10%. Besides, the activity at 100 µM in data set [2] was found to be 69.4%.

The compound `COc1cc(OC)c2c(=O)cc(-c3ccc(OCCN4CCCC4=O)cc3)oc2c1` [Compound 13, 1-(2-(4-(5,7-Dimethoxy-4-oxo-4H-chromen-2-yl)phenoxy)ethyl)-pyrrolidin-2-one] displayed a melting point of 115 to 116 °C. In data set [1] (setting [3]), the inhibition at 5 µM was found to be 7% and the inhibition at 20 µM amounted to 33%. The inhibition at 10 µM in data set [1] (setting [4]) came out at 14%. Besides, the activity at 100 µM in data set [2] turned out to be 108%.

Compound `CCN(CC)CCOc1ccc(-c2cc(=O)c3c(OC)cc(OC)cc3o2)cc1` [Compound 17, 2-(4-(2-Diethylaminoethoxy)-phenyl)-5,7-dimethoxy-chromen-4-one] had a melting point of 116 to 117 °C. In addition, in data set [1] (setting [3]), the inhibition at 5 µM was found to be 33% and the inhibition at 20 µM was determined as 72%. For the same compound, in data set [1] (setting [4]), the inhibition at 10 µM came out at 60%. Besides, the activity at 100 µM in data set [2] was 106%.

Compound `COc1cc(OC)c2c(=O)cc(-c3ccc(OCC(O)CO)cc3)oc2c1` (centres unmarked) [Compound 28, 2-(4-(2,3-Dihydroxypropoxy)phenyl)-5,7-dimethoxy-chromen-4-one] yielded a melting point of 203 to 204 °C. Moreover, the inhibition at 10 µM in data set [1] (setting [4]) was 11%. Further, the inhibition at 20 µM in data set [1] (setting [3]) came out at 16%. Further, the “Antiproliferative effect on PSC, result in words” value in data set [1] is “dramatic loss of activities”. For the same compound, the activity at 100 µM in data set [2] was 104%.

`COc1cc(OC)c2c(=O)cc(-c3ccc(OCCBr)cc3)oc2c1` [Compound 7, 2-(4-(2-Bromoethoxy)phenyl)-5,7-dimethoxy-chromen-4-one] returned a melting point of 202 to 203 °C. Also, the inhibition at 20 µM in data set [1] (setting [3]) was found to be 20%. For the same compound, in data set [1], the “Antiproliferative effect on PSC, result in words” value is recorded as “slightly increased antiproliferative effects in comparison with 6”. Further, the activity at 100 µM in data set [2] was found to be 121%.

Regarding `COc1cc(OC)c2c(=O)cc(-c3ccc(OCCN4CCN(C)CC4)cc3)oc2c1` [Compound 15, 5,7-Dimethoxy-2-(4-(2-(4-methylpiperazin-1-yl)ethoxy)phenyl)-chromen-4-one], the melting point fell in the range of 144 to 145 °C. In data set [1] (setting [3]), the inhibition at 5 µM was found to be 22% and the inhibition at 20 µM is 67%. The inhibition at 10 µM in data set [1] (setting [4]) was found to be 42%. For the same compound, in data set [2], the activity at 100 µM was found to be 124%.

On to `COc1cc(OC)c2c(=O)cc(-c3ccc(OCCN4CCOCC4)cc3)oc2c1` [Compound 11, 5,7-Dimethoxy-2-(4-(2-morpholin-4-yl-ethoxy)phenyl)-chromen-4-one], for which the melting point was in the range of 149 to 150 °C. In addition, in data set [2], the activity at 100 µM turned out to be 117%.
